Data published in the CheMixHub viscosity set.

Assay: xn = mol fraction of the nth substance listed
Conditions: 101 kPa

C[C@H](N)C(=O)N[C@@H](C)C(=O)O + O
viscosity [mPa·s]
Conditions | x1 = 3.87e-05 | x1 = 7.58e-05 | x1 = 0.000107 | x1 = 0.00015 | x1 = 0.000172 | x1 = 0.0002106 | x1 = 0.0002561 | x1 = 0.0002871 | x1 = 0.0003202 | x1 = 0.0003571
305.15 K | 0.7669 | 0.7674 | 0.7681 | 0.7688 | 0.7719 | 0.7741 | 0.7782 | 0.7795 | 0.7798 | 0.7828
310.15 K | 0.7029 | 0.7032 | 0.7033 | 0.7061 | 0.7067 | 0.7084 | 0.7089 | 0.7115 | 0.7139 | 0.7167
315.15 K | 0.6416 | 0.6452 | 0.6473 | 0.6487 | 0.6499 | 0.6499 | 0.6519 | 0.6548 | 0.6573 | 0.6608

CNC=O + CC(=O)N(C)C
viscosity [mPa·s]
Conditions | x2 = 0.0697 | x2 = 0.0811 | x2 = 0.1686 | x2 = 0.2571 | x2 = 0.3498 | x2 = 0.4488 | x2 = 0.545 | x2 = 0.6533 | x2 = 0.7606 | x2 = 0.8777
293.15 K | 1.824 | 1.81 | 1.709 | 1.612 | 1.516 | 1.422 | 1.337 | 1.252 | 1.176 | 1.101
303.15 K | 1.543 | 1.532 | 1.452 | 1.374 | 1.296 | 1.219 | 1.151 | 1.083 | 1.021 | 0.962
313.15 K | 1.325 | 1.316 | 1.252 | 1.188 | 1.125 | 1.063 | 1.007 | 0.95 | 0.9 | 0.85
323.15 K | 1.157 | 1.149 | 1.096 | 1.044 | 0.991 | 0.94 | 0.893 | 0.846 | 0.803 | 0.762
